Test results from paper PMC12163725, “Synthesis and functionalization of vinyl sulfonimidamides and their potential as electrophilic warheads” (Chemical Science, 2025).

Assay: Kinetic study of reaction with glutathione (GSH), half-life by 1H NMR (disappearance of vinyl group)
Details: second order kinetics, 1.0 equiv. glutathione, phosphate buffer pH 7.3 in D2O:(CD3)2SO = 2:1, 1H NMR
Procedure: The reactivity of the vinyl sulfonimidamides was next examined under biologically relevant conditions using glutathione (GSH) as the nucleophile at pH 7.3 (Scheme 4).[32] The half-life (t1/2) was determined using ^1H NMR analysis, with the disappearance of the vinyl group monitored as a function of time (full experimental details are provided in the ESI ^†). […] Due to the rapid reaction rates, the half-life for the majority of substrates was calculated using second-order kinetics. However, the half-life of unfunctionalized α-Me and β-Me-substituted sulfonimidamide derivatives were determined with pseudo-first-order kinetics using six equivalents of glutathione.
Reaction was conducted in a mixture of buffer solution and deuterated DMSO
(Buffer:(CD3)2SO = 2:1). A relatively high (CD3)2SO ratio was employed due to the insolubility
of less polar substrates in the buffer solution.
Buffer solution containing 0.0648 mol/L disodium hydrogen phosphate and 0.0153 mol/L
potassium dihydrogen phosphate at p H 7.3[10] was prepared using d euterium oxide and
stored at 20 °C. […] The stock solution […]
For the majority of substrates, the half-life was determined using second order kinetics with […]
was measured and plotted as the inverse against time. The half-life was calculated through […]
starting material was plotted as natural log and the half-life was calculated through the best-

Half-life (t1/2) of reaction with GSH: too fast to be determined
Structure (SMILES): C=CS(=O)(=NS(C)(=O)=O)N1CCOCC1 (stereo not shown) [Compound 3e]
